Assay results taken from patent US20030225002A1, “Co-therapy for the treatment of migraine comprising anticonvulsant derivatives and anti-migraine agents” (priority 2002, published 2003).
Structures can show the parent of a compound that is named as a salt.

Tests used:
Type in all cases: in vivo, human
[1] = system: refractory migraine (migraine without aura); experiment: Case Study 2: refractory migraine without aura; conditions: for Response of refractory migraine to earlier therapy: CORGARD in combination with PROZAC or CELEXA or trazodone
Description: The patient was a person with a lifelong history of refractory migraine (migraine without aura), averaging 8 migraines per month. […] The patient was started on topiramate at 25 mg/day, with dosage increasing to 75 mg/day. Simultaneously, the beta-blocker, CORGARD dosage was decreased to 20 mg/day, with CELEXA at 20 mg/day also continued.

[2] = system: severe refractory migraine with and without aura; experiment: Case Study 3: severe refractory migraine with and without aura
Description: The patient was a person with a twenty-year history of severe refractory migraine with and without aura. […] The patient was started on topiramate at 50 mg/day increasing to 100 mg in the morning and 100 mg in the evening, in combination with INDERAL at 160 mg/day. […] After about 6 months, the patient was prescribed EFFEXOR XR (vanlafaxine HCl) at 37 mg/day, an increased topiramate dose of 125 mg in the morning and 150 mg in the evening, and 160 mg/day INDERAL.

[3] = system: persistent daily headache with migraine features; experiment: Case Study 1: persistent daily headache with migraine features; conditions: one patient; for Response of persistent daily headache to earlier therapy: before topiramate
From the text: The patient was a person with persistent daily headache with migraine features.

## CN(C)CCCC1(c2ccc(F)cc2)OCc2cc(C#N)ccc21 (stereo not shown) [CELEXA, citalopram HCl]
[1]
  Response of refractory migraine to earlier therapy: no response

## CC(C)(C)NCC(O)COc1cccc2c1CC(O)C(O)C2 (stereo not shown) [CORGARD, nadolol]
[1]
  Response of refractory migraine to earlier therapy: no response

## CCCC(CCC)C(=O)O [DEPAKOTE, valproic acid]
[2]; earlier therapy
  Response of severe refractory migraine: modest symptomatic response
  Tolerability, reason for discontinuation: discontinued due to weight gain

## CC(C)NCC(O)COc1cccc2ccccc12.Cl (stereo not shown) [INDERAL, propranolol HCl]
[3]
  Response of persistent daily headache to earlier therapy: failed to respond
[2]; INDERAL at 120 mg/day in combination with tricyclic antidepressants
  Response of severe refractory migraine: Only modest response

## CN1CCC(=C2c3ccccc3C=Cc3ccccc32)CC1 [PERIACTIN, cyproheptadine HCl]
[3]
  Response of persistent daily headache to earlier therapy: failed to respond

## CNCCC(Oc1ccc(C(F)(F)F)cc1)c1ccccc1 (stereo not shown) [PROZAC, fluoxetine HCl]
[1]
  Response of refractory migraine to earlier therapy: no response

## CNS(=O)(=O)CCc1ccc2[nH]cc(C3CCN(C)CC3)c2c1 [naratriptan]
[3]
  Response of severe headaches: did however respond

## CNCCC=C1c2ccccc2CCc2ccccc21 [nortriptyline]
[3]
  Response of persistent daily headache to earlier therapy: failed to respond

## Cc1cc2nc3c(=O)[nH]c(=O)nc-3n(C[C@H](O)[C@H](O)[C@H](O)CO)c2cc1C [riboflavin]
[1]; 400 mg/day
  Effect of supplementation: no improvement

## CNS(=O)(=O)Cc1ccc2[nH]cc(CCN(C)C)c2c1 [sumatriptan]
[2]; repeated frequent use
  Response of severe refractory migraine: symptomatic response

## O=c1n(CCCN2CCN(c3cccc(Cl)c3)CC2)nc2ccccn12 [trazodone]
[1]
  Response of refractory migraine to earlier therapy: no response
